How the values were obtained:
Format in all cases: cell-based
Settings in all cases: single compound
Alternaria solani = Alternaria solani growth inhibition in nutrient broth (microtiter plate, photometric, 48 hrs)
Procedure: (§1) Alternaria solani (Early Blight Tomato/Potato): Conidia of the fungus from cryogenic storage were directly mixed into nutrient broth (PDB potato dextrose broth). A DMSO solution of the test compounds was placed into a microtiter plate (96-well format) and the nutrient broth containing the fungal spores was added to it. The test plates were incubated at 24 C and the inhibition of growth was determined photometrically after 48 hrs.

[1] = test system: Glomerella lagenarium Syn. Colletotrichum lagenarium; assay: Glomerella lagenarium growth inhibition in nutrient broth (microtiter plate, photometric, 72 hrs, 620 nm)
Procedure: as §1, with “Glomerella lagenarium Syn. Colletotrichum lagenarium (Anthracnose of Cucurbits);” for “Alternaria solani (Early Blight Tomato/Potato):”, “72 hrs at 620 nm.” for “48 hrs.”

Septoria tritici = Septoria tritici growth inhibition in nutrient broth (microtiter plate, photometric, 72 hrs)
Procedure: as §1, with “Septoria tritici (Leaf Blotch):” for “Alternaria solani (Early Blight Tomato/Potato):”, “72” for “48”

Sclerotinia sclerotiorum = Sclerotinia sclerotiorum growth inhibition in nutrient broth (microtiter plate, photometric, 72 hrs, 620 nm)
Procedure: as §1, with “Sclerotinia sclerotiorum (Cottony Rot, White Mold, Etc.); Mycelial fragments” for “Alternaria solani (Early Blight Tomato/Potato): Conidia”, “fungus prepared” for “fungus”, “a fresh liquid culture” for “cryogenic storage”, “72 hrs at 620 nm” for “48 hrs.”

[2] = test system: Mycosphaerella arachidis Syn. Cercospora arachidicola; assay: Mycosphaerella arachidis growth inhibition in nutrient broth (microtiter plate, photometric, 5-6 days, 620 nm)
Procedure: as §1, with “Mycosphaerella arachidis Syn. Cercospora arachidicola (Brown Leaf Spot of Peanut):” for “Alternaria solani (Early Blight Tomato/Potato):”, “5-6 days at 620 nm” for “48 hrs.”

Cc1ccc(CC2CON=C(c3cc(C)nnc3Oc3cccc(Cl)c3F)N2)c(Cl)c1 (stereo not shown) [Compound A-1.1, 3-[3-(3-chloro-2-fluoro-phenoxy)-6-methyl-pyridazin-4-yl]-5-[(2-chloro-4-methyl-phenyl)methyl]-5,6-dihydro-4H-1,2,4-oxadiazine]
Observed Activity (Alternaria solani; 0.01 ppm): 50% | Observed Activity ([1]; 0.01 ppm): 20% | Observed Activity ([1]; 0.1 ppm): 90% | Observed Activity (Septoria tritici; 0.01 ppm): 0% | Observed Activity (Septoria tritici; 0.1 ppm): 0%

Cn1nnnc1/C(=N\OCc1cccc(NC(=O)OC(C)(C)C)n1)c1ccccc1 [Picarbutrazox, picarbutrazox]
Observed Activity (Sclerotinia sclerotiorum; 6.66 ppm): 0% | Observed Activity (Sclerotinia sclerotiorum; 20 ppm): 0%

COC(=O)NCc1cc(/C(C)=N/OCc2cccc(C)n2)ccc1Cl [Pyribencarb, pyribencarb]
Observed Activity ([1]; 0.22 ppm): 20% | Observed Activity (Sclerotinia sclerotiorum; 0.008 ppm): 20%

Cc1ccc(N(SC(F)(Cl)Cl)S(=O)(=O)N(C)C)cc1 [Tolylfluanid, tolylfluanid]
Observed Activity ([1]; 0.025 ppm): 20% | Observed Activity ([1]; 0.074 ppm): 50% | Observed Activity ([2]; 0.22 ppm): 20% | Observed Activity ([2]; 0.66 ppm): 90% | Observed Activity (Sclerotinia sclerotiorum; 0.025 ppm): 0% | Observed Activity (Sclerotinia sclerotiorum; 0.074 ppm): 0% | Observed Activity (Sclerotinia sclerotiorum; 0.22 ppm): 90%

CCn1nccc1-c1c(Cl)cccc1Cc1cc2ccc(F)c(F)c2nc1C [3-[[3-chloro-2-(2-ethylpyrazol-3-yl)phenyl]methyl]-7,8-difluoro-2-methyl-quinoline]
Observed Activity ([1]; 0.074 ppm): 20% | Observed Activity ([1]; 0.22 ppm): 90% | Observed Activity ([1]; 0.74 ppm): 20% | Observed Activity (Sclerotinia sclerotiorum; 2 ppm): 0% | Observed Activity (Sclerotinia sclerotiorum; 6 ppm): 20%

CCn1nccc1-c1ccccc1Nc1nc2ccc(F)c(F)c2nc1C [N-[2-(2-ethylpyrazol-3-yl)phenyl]-5,6-difluoro-3-methyl-quinoxalin-2-amine]
Observed Activity (Alternaria solani; 0.08 ppm): 20% | Observed Activity (Alternaria solani; 0.246 ppm): 20% | Observed Activity (Alternaria solani; 0.74 ppm): 20% | Observed Activity (Sclerotinia sclerotiorum; 6.66 ppm): 0% | Observed Activity (Sclerotinia sclerotiorum; 20 ppm): 0%

CCCn1nccc1-c1c(F)cccc1Nc1nc2ccc(F)c(F)c2nc1C [5,6-difluoro-N-[3-fluoro-2-(2-propylpyrazol-3-yl)phenyl]-3-methyl-quinoxalin-2-amine]
Observed Activity (Alternaria solani; 0.25 ppm): 20% | Observed Activity (Alternaria solani; 0.74 ppm): 20% | Observed Activity ([1]; 0.66 ppm): 70% | Observed Activity (Sclerotinia sclerotiorum; 6.66 ppm): 0% | Observed Activity (Sclerotinia sclerotiorum; 20 ppm): 0%

Cc1cc(C2=NOCC(Cc3ccc(Br)cc3C)N2)c(Oc2cccc(Cl)c2F)nn1 (stereo not shown) [Compound A-1.3, 5-[(4-bromo-2-methyl-phenyl)methyl]-3-[3-(3-chloro-2-fluoro-phenoxy)-6-methyl-pyridazin-4-yl]-5,6-dihydro-4H-1,2,4-oxadiazine]
Observed Activity ([1]; 0.02 ppm): 20% | Observed Activity ([1]; 0.2 ppm): 90% | Observed Activity ([2]; 0.02 ppm): 0% | Observed Activity ([2]; 0.2 ppm): 0% | Observed Activity (Sclerotinia sclerotiorum; 0.02 ppm): 20% | Observed Activity (Sclerotinia sclerotiorum; 0.2 ppm): 70% | Observed Activity (Septoria tritici; 0.2 ppm): 0%

CCCn1nccc1-c1c(Cl)cccc1Nc1cc2ccc(F)c(F)c2nc1C [N-[3-chloro-2-(2-propylpyrazol-3-yl)phenyl]-7,8-difluoro-2-methyl-quinolin-3-amine]
Observed Activity (Alternaria solani; 0.008 ppm): 0% | Observed Activity (Alternaria solani; 0.025 ppm): 20% | Observed Activity (Sclerotinia sclerotiorum; 0.66 ppm): 0% | Observed Activity (Sclerotinia sclerotiorum; 2 ppm): 0% | Observed Activity (Septoria tritici; 0.008 ppm): 0% | Observed Activity (Septoria tritici; 0.025 ppm): 0% | Observed Activity (Septoria tritici; 0.074 ppm): 20% | Observed Activity (Septoria tritici; 0.22 ppm): 20%

CC(Oc1ccc(Cl)cc1Cl)C(=O)NC(C)(C#N)C(C)C (stereo not shown) [Fenoxanil, fenoxanil]
Observed Activity (Sclerotinia sclerotiorum; 2.22 ppm): 0% | Observed Activity (Sclerotinia sclerotiorum; 6.66 ppm): 0% | Observed Activity (Sclerotinia sclerotiorum; 20 ppm): 0%
